Measured values: patent publication US20150342933A1, “APORPHINE ALKALOID DERIVATIVE FOR […]-DEPENDENT PROTEIN KINASE” (ZIH YUAN TANG Biotechnology Co., Ltd, priority 2014, published 2015)

System: AMPK
Assay: AMPK phosphorylation in C2C12 myocytes (Western blot, Phospho-AMPKα Thr172)
Assay type: cell-based, mouse
Method: C2C12 skeletal myoblast cell line was purchased from the Food Industry Research and Development Institute (Hsinchu, Taiwan). The C2C12 cell line was a cell line obtained from culturing the leg skeletal muscle of adult C3H mice in a cell incubator under 95% […], 5% CO2, and 37° C. The cells were cultured in a DMEM medium (Gibco/Invitrogen, Carlsbad, Calif.) containing 4.5 mg/mL glucose, 10% fetal bovine serum (FBS; Gibco/Invitrogen, Carlsbad, Calif.), and an antibiotic solution (with final concentrations of penicillin=100 IU/mL and streptomycin=100 μg/mL). When the C2C12 myoblast cells have proliferated to cover seven-tenths of the area in the petri dish, the fetal bovine serum was replaced by 2% horse serum (Gibco/Invitrogen, Carlsbad, Calif.) so as to induce the C2C12 myoblast cells to become the multi-nuclei myocytes. The C2C12 myoblast cells differentiated into myocytes in 4 days, and the culture medium of the cells was replaced with no-serum DMEM 24 hours before the experiments so as to reduce metabolism of the cells.
The C2C12 myocytes were treated respectively with 1 μM, 3 μM and 10 μM 1,10-dihydroxyaporphine hydrobromide for 5 and 15 minutes. Then the C2C12 myocytes were rinsed with PBS buffer solution, and RIPA buffer solution containing protease inhibitors (20 mM Tris-HCl (pH 7.4), 100 mM NaCl, 1 mM EDTA, 1 mM EGTA, 0.1% SDS, 0.5% sodium deoxycholate, 1% NP-40, and 100× protease inhibitor cocktail) was added into the cells. The cells were collected and centrifuged on ice. Then, the concentrations of the supernatant samples were adjusted to be the same.
The supernatant samples were put through vertical electrophoresis isolation with 8% SDS-PAGE, and the isolated proteins were transferred onto a PVDF blotting membrane. After blotting was completed, the PVDF blotting membrane was removed and blocked for 1 hour under room temperature with a blocking buffer of TBST (Tris-buffered saline with Tween-20) with 5% non-fat milk. Then, the PVDF blotting membrane was placed into a 5% BSA and TBST solution containing the primary monoclonal antibodies Phospho-AMPKα (Thr172) (Cell Signaling) (1:1000) and AMPKα […] (Cell Signaling) (1:1000), respectively, and the primary immunoblotting reaction was performed under 4° C. Then, the PVDF blotting membrane was rinsed 3 times with TBST, and a TBST solution containing the secondary antibody goat anti-rabbit IgG (Perkin Elmer) (1:10000) was added to perform the secondary reaction for one hour under room temperature. Finally, the membrane was rinsed 3 times with TBST before ECL (enhanced chemiluminescence) was added to present color.

Br.CN1CCc2ccc(O)c3c2C1Cc1ccc(O)cc1-3 (stereo not shown) [1,10-dihydroxyaporphine hydrobromide]
AMPK phosphorylation, times of that in the control cells (3 μM, 5 minutes): 1.33 times | AMPK phosphorylation, times of that in the control cells (3 μM, 15 minutes): 1.21 times | AMPK phosphorylation, times of that in the control cells (10 μM, 5 minutes): 1.23 times | AMPK phosphorylation, times of that in the control cells (10 μM, 15 minutes): 1.65 times
